For one assay, the target named is MAPK14 (human) (UniProt Q16539). Briefly: Inhibition of MAPK14 Kinase Activity.
Assay [1] has as its target PIK3CA (human) (UniProt P42336). Nature of the assay: Inhibition of Substrate Phosphorylation by PIK3CA. Conditions: hct 116,bxpc-3 pancreatic,mda-mb-468, concentration not given here.
Assay [2] shares this target. Nature of the assay: Inhibition of PIK3CA Kinase Activity.

What is called IC50 is the concentration needed to halve the response being measured. For orientation: inhibition means the drop in the measured response relative to a control, in per cent. Read a low inhibition as a response near the control.

Sequence of MAPK14 (human) (Q16539 whole entry, looked up): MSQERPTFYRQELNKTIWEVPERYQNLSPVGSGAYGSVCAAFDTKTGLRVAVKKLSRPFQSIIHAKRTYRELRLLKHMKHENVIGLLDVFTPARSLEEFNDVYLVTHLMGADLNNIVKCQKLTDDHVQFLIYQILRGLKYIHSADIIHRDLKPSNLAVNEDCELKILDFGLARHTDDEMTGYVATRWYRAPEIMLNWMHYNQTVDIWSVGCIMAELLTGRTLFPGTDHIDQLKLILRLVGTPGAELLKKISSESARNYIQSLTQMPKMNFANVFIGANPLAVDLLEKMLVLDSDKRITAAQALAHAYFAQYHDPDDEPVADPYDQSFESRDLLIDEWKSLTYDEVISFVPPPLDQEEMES
Sequence of PIK3CA (human) (P42336 whole entry, looked up): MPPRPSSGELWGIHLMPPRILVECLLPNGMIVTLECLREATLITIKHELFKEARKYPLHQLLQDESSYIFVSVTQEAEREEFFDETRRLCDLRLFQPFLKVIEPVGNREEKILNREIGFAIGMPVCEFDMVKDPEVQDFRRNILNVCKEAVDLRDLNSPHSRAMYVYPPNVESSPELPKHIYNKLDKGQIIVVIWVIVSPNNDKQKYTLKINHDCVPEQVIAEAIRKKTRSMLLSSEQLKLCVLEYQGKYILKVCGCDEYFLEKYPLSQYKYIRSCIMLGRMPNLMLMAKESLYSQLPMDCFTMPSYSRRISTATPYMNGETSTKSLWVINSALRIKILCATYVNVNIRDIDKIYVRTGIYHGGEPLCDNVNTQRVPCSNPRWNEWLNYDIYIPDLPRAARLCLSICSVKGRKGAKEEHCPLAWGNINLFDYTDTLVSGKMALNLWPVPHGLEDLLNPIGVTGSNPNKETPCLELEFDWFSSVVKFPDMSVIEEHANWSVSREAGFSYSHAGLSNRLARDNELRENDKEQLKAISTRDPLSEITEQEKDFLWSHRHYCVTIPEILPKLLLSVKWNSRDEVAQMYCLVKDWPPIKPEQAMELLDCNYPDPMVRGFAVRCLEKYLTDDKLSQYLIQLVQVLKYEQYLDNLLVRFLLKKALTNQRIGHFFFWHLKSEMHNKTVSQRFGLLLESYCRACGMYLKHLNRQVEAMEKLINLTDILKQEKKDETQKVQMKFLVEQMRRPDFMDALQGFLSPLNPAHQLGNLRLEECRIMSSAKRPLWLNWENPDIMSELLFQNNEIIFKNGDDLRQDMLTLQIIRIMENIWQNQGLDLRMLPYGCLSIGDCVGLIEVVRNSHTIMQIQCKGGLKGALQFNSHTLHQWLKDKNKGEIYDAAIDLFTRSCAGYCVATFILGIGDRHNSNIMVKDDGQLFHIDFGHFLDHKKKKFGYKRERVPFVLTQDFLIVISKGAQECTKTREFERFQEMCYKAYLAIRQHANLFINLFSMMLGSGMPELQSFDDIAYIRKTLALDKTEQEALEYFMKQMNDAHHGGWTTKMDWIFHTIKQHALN

`CCNC(=O)Nc1ccc2ncc(-c3ccc(NC(=O)COCCOC)cc3)nc2n1` gave an IC50 against MAPK14 (human) greater than 100 µM. At PIK3CA (human) [1], `CCNC(=O)Nc1ccc2ncc(Nc3ccc(C)c(NS(C)(=O)=O)c3)nc2n1` returned an inhibition of 90%.

Take `CCNC(=O)Nc1ccc2ncc(-c3ccc(OC(=O)OC)cc3)nc2n1`: the IC50 on MAPK14 (human) was greater than 100 µM. The inhibition at PIK3CA (human) [1] came out at 50%. `CCOP(=O)(CCCCNC(=O)Nc1ccc2ncc(-c3ccc(O)c(OC)c3)nc2n1)OCC` showed an IC50 at MAPK14 (human) greater than 100 µM.

As to `CCNC(=O)Nc1ccc2ncc(-c3ccc(NC(=O)OC(C)(C)C)cc3)nc2n1`, at MAPK14 (human), the IC50 is greater than 100 µM. At MAPK14 (human), `CCNC(=O)Nc1ccc(-c2cnc3ccc(NC(=O)NCC)nc3n2)cc1` gave an IC50 greater than 100 µM. At PIK3CA (human) [1], this compound came in with an inhibition of 70%.

As to `CCNC(=O)Nc1ccc2ncc(-c3ccc(OC(=O)Oc4ccccc4)cc3)nc2n1`, the IC50 against MAPK14 (human) is greater than 100 µM. `COCCOC(=O)Oc1ccc(-c2cnc3ccc(NC(=O)NCCCCO)nc3n2)cc1` gave an IC50 on MAPK14 (human) greater than 31.6 µM.

As to `CCNC(=O)Nc1ccc2ncc(-c3ccc(OC(=O)/C=C/c4ccccc4)cc3)nc2n1`, the figures for the IC50 at PIK3CA (human) [2] and against MAPK14 (human) were greater than 31.6 µM and greater than 100 µM, respectively. As for `CCNC(=O)Nc1ccc2ncc(-c3ccc(OC(=O)OCCOC)c(OC)c3)nc2n1`, the IC50 against MAPK14 (human) was greater than 100 µM. In addition, the inhibition on PIK3CA (human) [1] was 90%. For `CCNC(=O)Nc1ccc2ncc(-c3ccc(OC(=O)OCCOC)cc3)nc2n1`, in that order: greater than 100 µM and 100%.

At MAPK14 (human), `CCNC(=O)Nc1ccc(-c2cnc3ccc(NC(=O)NCC)nc3n2)cn1` had an IC50 greater than 100 µM. Turning to `CCNC(=O)Nc1ccc2ncc(-c3ccc(OC(=O)OCC(C)C)cc3)nc2n1`, the IC50 against MAPK14 (human) is greater than 100 µM.

At MAPK14 (human), `CCNC(=O)Nc1ccc2ncc(-c3ccc(OC(=O)N(C)C)cc3)nc2n1` registered a 50% inhibitory concentration (IC50) greater than 100 µM. Still for that read-out and setting: the result for `CCNC(=O)Nc1ccc2ncc(-c3cccc(OC(=O)OCCOC)c3)nc2n1` reads greater than 100 µM. On the same count and under the same terms, next, `CCNC(=O)Nc1ccc2ncc(Nc3ccc(NC(C)=O)cc3)nc2n1`: greater than 100 µM; `COc1cc(-c2cnc3ccc(NC(=O)NCCCCP(=O)(O)O)nc3n2)ccc1O`: greater than 100 µM; `CCNC(=O)Nc1ccc2ncc(-c3ccc(NC(=O)OCCOC)cc3)nc2n1`: greater than 100 µM.

Values taken from the Kinase Knowledgebase extract (Sharma et al. 2016).
